Results taken from ChEMBL document CHEMBL4806969, “Modulators of mas-related g-protein receptor x4 and related products and methods” (2020).

Biological target: Mas-related G-protein coupled receptor member X4 (Homo sapiens, UniProt Q96LA9)
Assay: Antagonist activity at human MRGPRX4 expressed in HEK cells incubated in dark for 1 hr at 37 degree C and then incubated for 30 mins at room temperature in presence of […] bilirubin by HTRF assay
Type: functional, cell-based
Settings: not given

Chain of Mas-related G-protein coupled receptor member X4 (Q96LA9 whole entry): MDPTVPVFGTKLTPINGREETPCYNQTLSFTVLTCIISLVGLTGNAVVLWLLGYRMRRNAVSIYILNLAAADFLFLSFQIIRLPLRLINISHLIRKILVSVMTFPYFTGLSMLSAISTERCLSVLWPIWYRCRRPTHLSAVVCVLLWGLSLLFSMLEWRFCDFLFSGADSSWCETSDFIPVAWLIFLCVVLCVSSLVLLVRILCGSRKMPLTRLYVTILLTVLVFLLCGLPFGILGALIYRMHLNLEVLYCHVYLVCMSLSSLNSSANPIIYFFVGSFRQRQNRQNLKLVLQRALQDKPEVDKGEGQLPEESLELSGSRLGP

| IC50 [nM] | Compound |
| --- | --- |
| < 100 | O=C(O)c1cccc(COc2ccc3ccccc3c2Cl)c1F |
| < 100 | O=C(O)c1cc(COc2ccc(C(F)(F)F)cc2Cl)ccc1F |
| > 2500 | O=C(O)c1cccc(COc2cccc3c2OC(F)(F)O3)c1 |
| > 2500 | O=C(O)c1cccc(COc2c(Cl)cccc2Cl)c1 |
| < 100 | O=C(O)c1cccc(COc2ccc(OC(F)(F)F)cc2Cl)n1 |
| > 2500 | O=C(O)c1cccc(COc2ccc(-c3ccccc3)cc2)c1 |
| > 2500 | O=C(O)Cc1cccc(COc2ccc(Cl)cc2Cl)c1 |
| > 2500 | O=C(O)c1cccc(COc2ccccc2Cl)c1 |
| < 100 | O=C(O)c1cccc(COc2ccc(Cl)cc2Cl)c1F |
| > 2500 | N#CCc1ccccc1OCc1cccc(C(=O)O)c1 |
| < 100 | O=C(O)c1cccc(COc2ccc(OC(F)(F)F)cc2Cl)c1F |
| < 100 | O=C(O)c1cccc(COc2ccc(Cl)cc2C(F)(F)F)c1F |
| < 100 | O=C(O)c1cccc(COc2ccc(OC(F)(F)F)cc2Cl)c1 |
| < 100 | O=C(O)c1cccc(COc2ccc3ccccc3c2)c1F |
| > 2500 | O=C(O)c1cccc(COc2ccc3c(c2)CCC3=O)c1 |
| < 100 | O=C(O)c1cccc(COc2ccc(Cl)c(Cl)c2F)c1 |
| < 100 | O=C(O)c1cccc(COc2ccc(C(F)(F)F)cc2F)c1 |
| < 100 | Cc1cc(COc2ccc3ccccc3c2)nc(C(=O)O)c1 |
| < 100 | Cc1cc(COc2ccc3ccccc3c2)cc(C(=O)O)c1 |

| IC50 [nM] | Compound |
| --- | --- |
| > 2500 | CC(=O)c1ccc(OCc2cccc(C(=O)O)c2)cc1 |
| > 2500 | Cc1cc(OCc2cccc(C(=O)O)c2)ccc1OC(F)(F)F |
| > 2500 | O=C(O)c1cccc(COc2ccc(F)cc2Cl)c1 |
| < 100 | Cc1cc(COc2ccc(C(F)(F)F)c(Cl)c2)cc(C(=O)O)c1 |
| < 100 | O=C(O)c1cccc(COc2ccc3sccc3c2Cl)c1F |
| > 2500 | O=C(O)c1cccc(COc2ccc3c(c2)C(=O)CCC3)c1 |
| < 100 | O=C(O)c1cccc(COc2ccc(C(F)(F)F)c(F)c2)c1 |
| < 100 | O=C(O)c1cccc(COc2ccc(C(F)(F)F)cc2Cl)c1F |
| < 100 | O=C(O)c1cccc(COc2ccc(C(F)(F)F)c(Cl)c2)n1 |
| < 100 | COC(=O)c1cccc(COc2ccc3ccccc3c2)n1 |
| < 100 | CCc1cc(COc2ccc3ccccc3c2)nc(C(=O)O)c1 |
| < 100 | Cc1cc(Cl)ccc1OCc1cccc(C(=O)O)c1F |
| > 2500 | O=C(O)c1cccc(COc2ccccc2C(F)F)c1 |
| < 100 | O=C(O)c1cccc(COc2ccc(Cl)cc2Cl)c1Cl |
| < 100 | O=C(O)c1cccc(COc2ccc(Cl)c(Cl)c2Cl)c1F |
| > 2500 | N#Cc1ccc(OCc2cccc(C(=O)O)c2)cc1 |
| > 2500 | COC(=O)c1cccc(COc2ccc3scnc3c2)c1 |
| < 100 | O=C(O)c1cccc(COc2ccc(Cl)c(F)c2Cl)c1 |
| < 100 | O=C(O)c1c(F)ccc(COc2ccc(C(F)(F)F)cc2Cl)c1F |

| IC50 [nM] | Compound |
| --- | --- |
| < 100 | O=C(O)c1cccc(COc2ccc(Cl)c(F)c2)c1 |
| < 100 | O=C(O)c1cccc(COc2ccc(OC(F)(F)F)c(Cl)c2)n1 |
| < 100 | O=C(O)c1cccc(COc2ccc(C(F)(F)F)cc2)c1F |
| < 100 | O=C(O)c1nc(COc2ccc(C(F)(F)F)c(Cl)c2)ccc1F |
| > 2500 | CC(C)c1ccccc1OCc1cccc(C(=O)O)c1 |
| > 2500 | O=C(O)c1cccc(COc2ccc(Oc3ccccc3)cc2)c1 |
| < 100 | O=C(O)c1cccc(COc2ccc(C(F)(F)F)c(Cl)c2)c1F |
| < 100 | O=C(O)c1cccc(COc2ccc3ccccc3c2)n1 |
| > 2500 | O=C(O)c1cccc(COc2cccc(C(F)F)c2)c1 |
| > 2500 | O=C(O)c1cccc(COc2ccccc2Cl)c1F |
| < 100 | O=C(O)c1cc(F)cc(COc2ccc3ccccc3c2)c1 |
| > 2500 | CC(C)(C)c1ccccc1OCc1cccc(C(=O)O)c1 |
| < 100 | O=C(O)c1cccc(COc2ccc(OC(F)(F)F)c(Cl)c2)c1 |
| > 2500 | O=C(O)c1cccc(NC(=O)c2cccc(COc3ccc(C(F)(F)F)cc3Cl)c2)c1 |
| < 100 | O=C(O)c1cccc(COc2ccc(C(F)F)cc2Cl)c1 |
| < 100 | O=C(O)c1cccc(COc2ccc(Cl)cc2Cl)n1 |
| > 2500 | Cc1cc(OCc2cccc(C(=O)O)c2)ccc1C(F)(F)F |
| < 100 | c1cc(COc2ccc3ccccc3c2)cc(-c2nnn[nH]2)c1 |

The remaining lines, values behind:

| Compound | IC50 [nM] |
| --- | --- |
| Cc1cc(C(F)(F)F)ccc1OCc1cccc(C(=O)O)c1 | < 100 |
| O=C(O)c1cc(C2CC2)cc(COc2ccc(C(F)(F)F)cc2Cl)n1 | < 100 |
| Cc1cc(COc2ccc(C(F)(F)F)cc2Cl)nc(C(=O)O)c1 | < 100 |
| O=C(O)c1cc(Br)cc(COc2ccc(C(F)(F)F)cc2Cl)n1 | < 100 |
| O=C(O)c1cccc(Oc2ccc([N+](=O)[O-])cc2Cl)c1 | > 2500 |
| Cc1cc(C(F)(F)F)ccc1OCc1cc(F)cc(C(=O)O)c1 | < 100 |
| COC(=O)c1cccc(COc2ccc(C(F)(F)F)cc2Cl)n1 | < 100 |
| O=C(c1ccc(COc2ccc(C(F)(F)F)cc2Cl)cc1)N1CC2(COC2)C1 | < 2500 |
| O=C(O)c1cccc(COc2ccc(C(F)(F)F)cc2Br)c1 | < 100 |
| O=C(O)c1cccc(CNc2ccc(C(F)(F)F)cc2Cl)c1 | < 100 |
| O=C(O)c1cc(F)cc(COc2ccc(C(F)(F)F)cc2Cl)c1 | < 100 |
| Fc1cc(COc2ccc(C(F)(F)F)cc2Cl)cc(-c2nnn[nH]2)c1 | < 100 |
| Cc1cc(Cl)ccc1OCc1cccc(-c2nnn[nH]2)c1 | < 100 |
| O=C(O)CNC(=O)c1cccc(COc2ccc(C(F)(F)F)cc2Cl)c1 | < 100 |
| N#Cc1cc(COc2ccc(OC(F)(F)F)cc2Cl)cc(C(=O)O)c1 | < 100 |
| Cc1cc(COc2ccc(Cl)c(Cl)c2Cl)nc(C(=O)O)c1 | < 100 |
| Cc1ccc(OCc2cccc(C(=O)O)c2)c(Cl)c1Cl | < 100 |
| O=C(O)c1cc(F)cc(COc2ccc(Cl)cc2Cl)c1 | < 100 |
| O=C(O)c1cc(Cl)cc(COc2ccc(C(F)(F)F)cc2Cl)c1 | < 100 |
| Fc1cc(OCc2cccc(-c3nnn[nH]3)c2)ccc1C(F)(F)F | < 100 |

| Compound | IC50 [nM] |
| --- | --- |
| FC(F)(F)Oc1ccc(OCc2cccc(-c3nnn[nH]3)c2)c(Cl)c1 | < 100 |
| Fc1ccc(OCc2cccc(-c3nnn[nH]3)c2)c(Cl)c1 | < 100 |
| COCCCNC(=O)c1cccc(COc2ccc(C(F)(F)F)cc2Cl)c1 | < 100 |
| COc1ccc(C(=O)O)cc1COc1ccc(Cl)cc1Cl | > 2500 |
| Cc1cc(COc2ccc(C(F)(F)F)cc2Cl)cc(C(=O)O)c1 | < 100 |
| N#Cc1cc(COc2ccc(C(F)(F)F)c(Cl)c2)cc(C(=O)O)c1 | < 100 |
| Fc1ccc(COc2ccc(C(F)(F)F)cc2Cl)cc1-c1nnn[nH]1 | < 100 |
| Cc1cc(C(F)(F)F)ccc1OCc1cccc(C(=O)O)n1 | < 100 |
| Cc1cc(COc2ccc(Cl)cc2Cl)cc(C(=O)O)c1 | < 100 |
| COC(=O)c1cccc(COc2ccc(Cl)cc2Cl)c1 | > 2500 |
| FC(F)(F)c1ccc(OCc2cccc(-c3nnn[nH]3)n2)c(Cl)c1 | < 100 |
| NC(=O)c1cccc(COc2cccc(Cl)c2Cl)c1 | > 2500 |
| Fc1c(COc2ccc(C(F)(F)F)cc2Cl)cccc1-c1nnn[nH]1 | < 100 |
| FC(F)(F)Oc1ccc(OCc2cccc(-c3nnn[nH]3)c2)cc1Cl | < 100 |
| Cc1cc(C(F)(F)F)ccc1OCc1cccc(-c2nnn[nH]2)c1 | < 100 |
| O=C(O)c1cc(COc2ccc(C(F)(F)F)cc2Cl)cc(C2CC2)c1 | < 100 |
| O=C(O)c1cc(Br)cc(COc2ccc(C(F)(F)F)cc2Cl)c1 | < 100 |
| O=C(O)c1cccc(COc2ccc(C(F)(F)F)cc2C(F)(F)F)c1 | < 100 |
| FC(F)(F)c1ccc(OCc2cccc(-c3nnn[nH]3)c2)cc1Cl | < 100 |
| Cc1cc(CNc2ccc(C(F)(F)F)cc2Cl)nc(C(=O)O)c1 | < 100 |

| Compound | IC50 [nM] |
| --- | --- |
| Cc1noc(-c2cccc(COc3ccc(C(F)(F)F)cc3Cl)c2)n1 | < 2500 |
| COc1cc(COc2ccc(Cl)cc2Cl)cc(C(=O)O)c1 | < 100 |
| COc1cc(COc2ccc(C(F)(F)F)cc2Cl)cc(C(=O)O)c1 | < 100 |
| N#Cc1cc(COc2ccc(Cl)c(Cl)c2Cl)cc(C(=O)O)c1 | < 100 |
| CC(Oc1ccc(C(F)(F)F)cc1Cl)c1cccc(C(=O)O)c1 (stereo unspecified) | < 100 |
| CCOC(=O)c1cccc(COc2ccc(C(F)(F)F)cc2Cl)n1 | < 100 |
| N#Cc1cc(COc2ccc(C(F)(F)F)cc2Cl)cc(C(=O)O)c1 | < 100 |
| O=C(O)c1cc(F)cc(COc2ccc(Cl)c(Cl)c2Cl)c1 | < 100 |
| Cc1cc(C(F)(F)F)ccc1OCc1cc(C#N)cc(C(=O)O)c1 | < 100 |
| Cc1cc(COc2ccc(C(F)(F)F)cc2C)cc(C(=O)O)c1 | < 100 |
| N#Cc1cc(COc2ccc(C(F)(F)F)cc2Cl)nc(C(=O)O)c1 | < 100 |
| O=C(O)c1cccc(COc2ccc(C(F)(F)F)cc2Cl)n1 | < 100 |
| Cc1ccc(COc2ccc(Cl)cc2Cl)cc1C(=O)O | > 2500 |
| Cc1cc(COc2ccc(OC(F)(F)F)cc2Cl)cc(C(=O)O)c1 | < 100 |
| O=C(O)c1cccc(CNc2ccc(C(F)(F)F)cc2Cl)n1 | < 100 |
| CCc1cc(COc2ccc(Cl)c(Cl)c2Cl)nc(C(=O)O)c1 | < 100 |
| O=C(O)c1nc(COc2ccc(C(F)(F)F)cc2Cl)ccc1F | < 100 |
| CCCc1cc(COc2ccc(C(F)(F)F)cc2Cl)nc(C(=O)O)c1 | < 100 |
| O=C(O)c1cc(Cl)cc(COc2ccc(Cl)cc2Cl)c1 | < 100 |

Test system: not listed separately
Assay: AUC in C57BL/6 mouse at 50 mg/kg, po measured upto 24 hrs by LC-MS/MS analysis
Type: ADME, organism-based
Design: route oral, dose 50 mg/kg, time <=24
Settings: in vivo

| AUC at 24 h [µM·h] | Compound |
| --- | --- |
| 1070 | O=C(O)c1cc(COc2ccc(C(F)(F)F)cc2Cl)ccc1F |
| 1500 | O=C(O)c1cccc(COc2ccc(Cl)cc2Cl)c1F |
| 2150 | O=C(O)c1cccc(COc2ccc(C(F)(F)F)cc2Cl)c1F |
| 1210 | O=C(O)c1cccc(COc2ccc(Cl)cc2Cl)n1 |

Second part, the compound before the results:

| Compound | AUC at 24 h [µM·h] |
| --- | --- |
| O=C(O)c1cc(F)cc(COc2ccc(C(F)(F)F)cc2Cl)c1 | 1040 |
| Cc1cc(COc2ccc(C(F)(F)F)cc2Cl)cc(C(=O)O)c1 | 974 |
| Cc1cc(COc2ccc(C(F)(F)F)cc2C)cc(C(=O)O)c1 | 572 |
| O=C(O)c1cccc(COc2ccc(C(F)(F)F)cc2Cl)n1 | 880 |

Test system: not listed separately
Assay: Half life in C57BL/6 mouse at 50 mg/kg, po measured upto 24 hrs by LC-MS/MS analysis
Type: ADME, organism-based
Settings: in vivo

| half-life [h] | Compound |
| --- | --- |
| 4.7 | O=C(O)c1cc(COc2ccc(C(F)(F)F)cc2Cl)ccc1F |
| 5.9 | O=C(O)c1cccc(COc2ccc(Cl)cc2Cl)c1F |
| 11.2 | O=C(O)c1cccc(COc2ccc(C(F)(F)F)cc2Cl)c1F |
| 3 | O=C(O)c1cccc(COc2ccc(Cl)cc2Cl)n1 |

The next lines start with the compound.

| Compound | half-life [h] |
| --- | --- |
| O=C(O)c1cc(F)cc(COc2ccc(C(F)(F)F)cc2Cl)c1 | 4.8 |
| Cc1cc(COc2ccc(C(F)(F)F)cc2Cl)cc(C(=O)O)c1 | 4.6 |
| Cc1cc(COc2ccc(C(F)(F)F)cc2C)cc(C(=O)O)c1 | 3.6 |
| O=C(O)c1cccc(COc2ccc(C(F)(F)F)cc2Cl)n1 | 3.2 |
